Measurements published in article PMC11228623, “Photoswitchable glycoligands targeting Pseudomonas aeruginosa LecA” (Beilstein Journal of Organic Chemistry, 2024).

Key:
LecA [1] = molecular target: T1, LecA (Pseudomonas aeruginosa, UniProt Q05097); assay: Isothermal titration calorimetry (ITC) of ligand binding to LecA; details: ITC Kd, E-isomer the better binder
T1 construct: LecA was expressed and purified as previously described; made in house
Text: The interaction of compounds 1–5 with LecA was characterized by ITC analysis for both the E- and Z-isomers. As the initial isomer state of the galactosyl azobenzenes is the E-form, ITC measurements made on E-isomers correspond to 100% purity of them. After 370 nm irradiation to induce the photoizomerisation process, a photostationary state is reached between E- and Z-isomers. For ITC measurements made on Z-isomers, the percentage of isomers is shown in the column Z/E (PSS370) of Table 1. Depending on the corresponding galactosyl azobenzenes, the Z-isomer is pure from 87 to 99%. Spectroscopy measurements were performed on ligand solution just before each experiment to check the efficiency of the isomerization, with results as indicated in Table 2.
Isothermal titration calorimetry: LecA was expressed and purified as previously described. All experiments were performed at 25 °C with an ITC200 isothermal titration calorimeter (Microcal-Malvern Panalytical, Grenoble, France). The lyophilized LecA protein was dissolved in a buffer composed of 20 mM Tris^.HCl (pH 7.5), 100 mM NaCl and 100 μM CaCl2 with 5% or 10% DMSO final. All compounds were first dissolved in DMSO then in same buffer for a final concentration of 5% or 10% DMSO. […]

[2] = Photostationary state composition (E/Z ratios) by 1H NMR and UV–vis after irradiation; assay type: physicochemical; details: for Z/E PSS370: after 370 nm irradiation; for E/Z PSS485: after 485 nm irradiation; for E-isomer mixed with the Z-isomer as established by PSS370: Z-isomer samples used for ITC
Protocol: General experimental details. Commercially available solvents and reagents were used without further purification. Reactions carried out under anhydrous conditions are performed under argon in glassware previously dried in an oven. DMF and THF were previously dried through alumina or molecular sieves-containing cartridges using a solvent purificator MBRAUN SPS-800. All the reactions with azobenzene-containing substrates were carried out in the dark. Reactions were monitored by TLC on Silica Gel 60F-254 plates with detection by UV (254 nm or 365 nm) or by spraying with 10% H2SO4 in EtOH and heating about 30 s at 400–600 °C. Column chromatography purification was performed on CombiFlash® Rf+ and RediSep® RF or RF Gold normal phase silica columns (with UV detection at 254 and 350 nm for all azobenzene derivatives), or by flash column chromatography employing silica gel (60 Å pore size, 40–63 µm). ^1H and ^13C NMR spectra were recorded on a JEOL ECS-400 spectrometer or on Bruker Avance 300 and 400 spectrometers. Structural assignments were made with additional information from gCOSY, HMBC, and gHMQC experiments. High-resolution mass spectra (HRMS) were performed on a Bruker maXis mass spectrometer by the SALSA platform from ICOA laboratory or on an Agilent 1260 Infinity system with a quadrupole time-of-light (Q-TOF) mass analyzer. Melting points were measured with a Köfler bench previously calibrated using the usual standard references or on a digital melting point capillary apparatus. Specific optical rotations were measured in solution using sodium light at 589 nm where no absorption occurred for all compounds. Absorption spectra were recorded on a Cary-5000 spectrophotometer from Agilent Technologies. Photochromic reactions were induced in situ by a continuous irradiation Hg/Xe lamp (Hamamatsu, LC6- or LC8-Lightningcure, 200 W) equipped with narrow band interference filters of appropriate wavelengths: Semrock BP-370/36 for λirr = 370 nm, Semrock FF01-438/24-25 for λirr = 438 nm, Semrock FF01-485/20-25 for λirr = 485 nm. The irradiation power was measured using a photodiode from Ophir (PD300-UV) and corrected after a measurement with an additional Schott long pass filter (LP-545) to measure NIR contribution (PLP) that is let through the Semrock filter (PTotal), considering a 90% transmittance: Pλirr = PTotal − (10/9 × PLP). The photoconversion reaction was followed by a combination of ^1H NMR and UV–vis absorption spectra, realized by successive irradiations at 370 nm (438 or 485 nm). The E/Z ratios were determined by integration of the azobenzene proton signals of each isomer. A quartz cell of 10 mm path length has been used for solution measurement.
The photoconversion yields were measured from a solution of the compounds in deuterated solvent and monitored by ^1H NMR and UV–vis absorption, after successive irradiations at 370 nm (438 nm or 485 nm) in the case of the PSS. The E/Z ratios were determined by integration of characteristic of each isomer.

[3] = Fatigue resistance under alternated UV/vis irradiation cycles; assay type: physicochemical; details: alternated UV (370 nm) and visible irradiation cycles, aqueous media
Text: Figure 2 (Left) Absorption spectra and (right) fatigue resistance of 1 under alternated 370/485 nm irradiations in Tris buffer/DMSO 95:5 at rt: E-1 (black line), PSS370 (blue line), PSS485 (red line). Irradiation conditions at 370 nm: 12.8 mW·cm^−2, 20 s; at 485 nm: 1.5 mW·cm^−2, 480 s.
General procedure for the fatigue resistance measurements
Starting from a solution of compound containing 100% of the E-isomer, the solution was irradiated sequentially at 370 nm and at 485 nm or 438 nm. The absorbance was measured before and after each illumination realized with constant optical length distance. The sequence, which constitutes a cycle, was repeated for a minimum of 10 times.
Fatigue resistance of the compound 2
Figure S15: Left: absorption spectra of E-2 (black line), PSS370 (blue line), PSS438 (red line) in Tris buffer/ DMSO (9/1); Right: Fatigue resistance followed by the absorption band at 3 21 nm under alternate 3 70 nm/438 nm irradiation cycles in Tris buffer/DMSO (9/1). Irradiation conditions: 40 s at P 370 = 14.1 mW cm-2 and 180 s at P 438 […]
Fatigue resistance of the compound 3
Figure S16: Left: absorption spectra of E-3 (black line), PSS 370 (blue line), PSS 485 (red line) in Tris buffer/DMSO (9/1); Right: Fatigue resistance followed by the absorption band at 3 64 nm under alternate 3 70 nm/485 nm irradiation cycles in Tris buffer/DMSO (9/1). […]

[4] = Thermal Z→E isomerization tracked by UV–vis absorption (half-life of Z-isomers); assay type: physicochemical; details: Tris buffer with 5% DMSO, pH 7.5, solvent not given; read-out: t1/2 (thermostability of Z-isomer) (converted)
Text: The photoswitching properties of galactosyl azobenzenes 1–5 were realized in water or in Tris buffer containing 5 to 10% DMSO, in accordance with the biophysical evaluation conditions by using ITC. All these compounds undergo reversible photoisomerization under UV–vis irradiation in aqueous solution. […] After irradiation at 370 nm to induce the E-to-Z photoisomerization, the band at 353 nm decreases concomitantly to the appearance of two new bands at 312 and 438 nm (Figure 2, blue line). Two isosbestic points can also be observed at 310 and 429 nm. The back Z→E photoisomerization can be achieved by illumination at 485 nm (Figure 2, red line). ^1H NMR spectroscopy has been used to determine the Z/E ratios during irradiation, showing an excellent photoconversion yield of Z/E = 99:1 at PSS370, and E/Z = 87:13 at PSS485 in D2O/5% DMSO (Figure 3). […] All the photophysical properties of compounds 1–5 are summarized in Table 1 (spectra are shown in Figure S1–S24 in Supporting Information File 1). Concerning the meta-substituted azobenzene 2, a 30 nm blue shift is observed for the π→π* transition (λmax = 321 nm) as well as a lower absorption coefficient compared to the para-derivative 1 (Table 1, entries 3 and 4 vs entries 1 and 2), probably due to less-conjugated azobenzene. […]
The half-lif e o f Z -1 at roo m temperatur e wa s the n calculated: […]

LecA [5] = molecular target: T1, LecA; details: ref [5]–[8][32]; cited from earlier work

T1 sequence (Q05097 whole entry): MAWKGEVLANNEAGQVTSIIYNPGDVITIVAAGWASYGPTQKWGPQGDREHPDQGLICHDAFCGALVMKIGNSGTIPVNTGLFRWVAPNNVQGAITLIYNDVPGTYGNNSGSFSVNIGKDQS

| SMILES | Z/E PSS370 ([2]; Tris/DMSO 10%) | E-isomer mixed with the Z-isomer as established by PSS370 [2] [%] | E/Z PSS485 ([2]; Tris/DMSO 10%) | difference in affinity between E- and Z-isomers (LecA [1]) [fold] | Z/E PSS370 ([2]; H2O) | E/Z PSS485 ([2]; H2O) | Z/E PSS370 ([2]; Tris/DMSO 5%) | E/Z PSS485 ([2]; Tris/DMSO 5%) | other results |
| --- | --- | --- | --- | --- | --- | --- | --- | --- | --- |
| NCCOc1ccc(/N=N/c2ccc(O[C@@H]3O[C@H](CO)[C@H](O)[C@H](O)[C@H]3O)cc2)cc1 [compound 1] | – | – | – | 3 | 99/1 | 87/13 | 99/1 | 87/13 | fatigue resistance [3]: no degradation has been observed after more than 10 UV–vis irradiation cycles |
| NCCOc1cccc(/N=N/c2cccc(O[C@@H]3O[C@H](CO)[C@H](O)[C@H](O)[C@H]3O)c2)c1 [compound 2] | 87/13 | 13 | – | – | – | – | 87/13 | 71/29 | half-life [4]: 29 days; E/Z PSS438 ([2]; Tris/DMSO 10%, after 438 nm irradiation (footnote d)): 74/26^d |
| NCCOc1ccc(/N=N/c2ccc(S[C@@H]3O[C@H](CO)[C@H](O)[C@H](O)[C@H]3O)cc2)cc1 [compound 3] | 99/1 | – | 71/29 | 2 | 99/1 | 73/27 | – | – | – |
| O=C[C@H](O)[C@@H](O)[C@@H](O)[C@H](O)CO [ᴅ-galactose] | – | – | – | – | – | – | – | – | Kd (LecA [5]): 34 µM |

Further lines, with some results ahead:

| Z/E PSS370 ([2]; Tris/DMSO 10%) | E-isomer mixed with the Z-isomer as established by PSS370 [2] [%] | E/Z PSS485 ([2]; Tris/DMSO 10%) | SMILES | difference in affinity between E- and Z-isomers (LecA [1]) [fold] | Z/E PSS370 ([2]; H2O) | E/Z PSS485 ([2]; H2O) | Z/E PSS370 ([2]; Tris/DMSO 5%) | E/Z PSS485 ([2]; Tris/DMSO 5%) | other results |
| --- | --- | --- | --- | --- | --- | --- | --- | --- | --- |
| 99/1 | – | 72/28 | NCCOc1ccc(/N=N/c2cccc(S[C@@H]3O[C@H](CO)[C@H](O)[C@H](O)[C@H]3O)c2)cc1 [compound 4] | – | – | – | – | – | – |
| 92/8 | 8 | 60/40 | NCCOc1ccc(/N=N/c2ccccc2S[C@@H]2O[C@H](CO)[C@H](O)[C@H](O)[C@H]2O)cc1 [compound 5] | – | – | – | – | – | – |
